{"source": "paper PMC9853847", "about": "(2023)", "assay_in_all_cases": "FRET titration (MLCT donor to Cy5.5-labeled DNA), dose-response fit", "key": {"[1]": {"tested_on": "matched duplex (27-mer) (DNA, duplex) GACCAGCTTATCACCCCTAGATACCAT/ATGGTATCTAGGGGTGATAAGCTGGTC", "conditions": "200 mM NaCl; 5 mM Tris, pH 7.5; 1 μM DNA"}, "[2]": {"tested_on": "mismatch 2 duplex (27-mer, CC mismatch at 14 bp) (DNA, mismatch bulge abasic) GACCAGCTTATCACCCCTAGATACCAT/ATGGTATCTAGGGCTGATAAGCTGGTC", "conditions": "200 mM NaCl; 5 mM Tris, pH 7.5; 1 μM DNA"}, "[3]": {"tested_on": "mismatch 3 duplex (27-mer, CC mismatch at 24 bp) (DNA, mismatch bulge abasic) GACCAGCTTATCACCCCTAGATACCAT/ATGCTATCTAGGGGTGATAAGCTGGTC", "conditions": "200 mM NaCl; 5 mM Tris, pH 7.5; 1 μM DNA"}, "[4]": {"tested_on": "20-mer duplex (DNA, duplex) TGAGGATGTGTAGGTTGATG/CATCAACCTACACATCCTCA", "conditions": "200 mM NaCl; 5 mM Tris, pH 7.5; 1 μM DNA"}, "[5]": {"tested_on": "mismatch 1 duplex (27-mer, CC mismatch at 4 bp) (DNA, mismatch bulge abasic) GACCAGCTTATCACCCCTAGATACCAT/ATGGTATCTAGGGGTGATAAGCTCGTC", "conditions": "200 mM NaCl; 5 mM Tris, pH 7.5; 1 μM DNA"}, "[6]": {"tested_on": "3WJ (three-way junction) (DNA, junction) TGAGGATGTGTAGGTTGATG/CATCAACCTAAGAATGAGAC/GTCTCATTCTCACATCCTCA", "conditions": "200 mM NaCl, 5 mM Tris, pH 7.5, 1 μM DNA"}, "[7]": {"tested_on": "G-quadruplex (G4) (DNA, G4) AGGGTTAGGGTTAGGGTTAGGG", "conditions": "100 mM KCl, 10 mM Tris.HCl, pH 7.4, 1 μM DNA"}, "[8]": {"conditions": "not saturated, tested up to 20 μM"}}, "data": [{"smiles": "[Ru+2].c1ccc(-c2ccccn2)nc1.c1ccc(-c2ccccn2)nc1.c1ccc2nc3c4cccnc4c4ncccc4c3nc2c1", "values": [{"measurement": "Kd", "setting": "[1]", "value": "5.1 ± 0.4", "unit": "µM"}, {"measurement": "Kd", "setting": "[2]", "value": "5.3 ± 0.6", "unit": "µM"}, {"measurement": "Kd", "setting": "[3]", "value": "6.5 ± 1.8", "unit": "µM"}, {"measurement": "Kd", "setting": "[4]", "value": "2.8 ± 0.9", "unit": "µM"}, {"measurement": "Kd", "setting": "[5]", "value": "5.0 ± 0.7", "unit": "µM"}, {"measurement": "Kd", "setting": "[6]", "value": "4.3 ± 0.9", "unit": "µM"}, {"measurement": "Kd", "setting": "[7]", "value": "3.9 ± 1.3", "unit": "µM"}]}, {"smiles": "Cc1ccc(-c2ccc(C)cn2)nc1.[Ru+2].c1ccc2nc3c4cccnc4c4ncccc4c3nc2c1.c1ccc2nc3c4cccnc4c4ncccc4c3nc2c1", "values": [{"measurement": "Kd", "setting": "[1]", "value": "8.1 ± 1.7", "unit": "µM"}, {"measurement": "Kd", "setting": "[2]", "value": "8.3 ± 3.0", "unit": "µM"}, {"measurement": "Kd", "setting": "[3]", "value": "8.1 ± 3.7", "unit": "µM"}, {"measurement": "Kd", "setting": "[4]", "value": "6.3 ± 0.3", "unit": "µM"}, {"measurement": "Kd", "setting": "[5]", "value": "6.4 ± 1.7", "unit": "µM"}, {"measurement": "Kd", "setting": "[6]; tested up to 20 μM", "value": "> 20", "unit": "µM"}, {"measurement": "Kd", "setting": "[7]; [8]", "value": "> 20", "unit": "µM"}]}, {"smiles": "Cc1ccc(-c2ccc(C)cn2)nc1.[Ru+2].c1ccc(-c2nc3c4cccnc4c4ncccc4c3[nH]2)cc1.c1ccc(-c2nc3c4cccnc4c4ncccc4c3[nH]2)cc1", "values": [{"measurement": "Kd", "setting": "[1]", "value": "7.9 ± 2.5", "unit": "µM"}, {"measurement": "Kd", "setting": "[2]", "value": "> 20", "unit": "µM"}, {"measurement": "Kd", "setting": "[3]", "value": "7.6 ± 1.9", "unit": "µM"}, {"measurement": "Kd", "setting": "[4]", "value": "2.6 ± 1.0", "unit": "µM"}, {"measurement": "Kd", "setting": "[5]", "value": "7.3 ± 2.5", "unit": "µM"}, {"measurement": "Kd", "setting": "[6]", "value": "6.4 ± 0.3", "unit": "µM"}, {"measurement": "Kd", "setting": "[7]; [8]", "value": "> 20", "unit": "µM"}]}, {"smiles": "Cc1ccc(-c2ccc(C)cn2)nc1.Cc1ccc(-c2ccc(C)cn2)nc1.[Ru+2].c1ccc2nc3c4cccnc4c4ncccc4c3nc2c1", "values": [{"measurement": "Kd", "setting": "[1]", "value": "4.7 ± 0.1", "unit": "µM"}, {"measurement": "Kd", "setting": "[2]", "value": "4.3 ± 0.6", "unit": "µM"}, {"measurement": "Kd", "setting": "[3]", "value": "5.1 ± 0.3", "unit": "µM"}, {"measurement": "Kd", "setting": "[4]", "value": "2.3 ± 0.5", "unit": "µM"}, {"measurement": "Kd", "setting": "[5]", "value": "4.6 ± 0.6", "unit": "µM"}, {"measurement": "Kd", "setting": "[6]", "value": "4.4 ± 0.7", "unit": "µM"}, {"measurement": "Kd", "setting": "[7]", "value": "3.8 ± 1.7", "unit": "µM"}]}]}
